Results reported in ChEMBL document CHEMBL1201862, “PubChem BioAssay data set” (2004).
Activity calls are given as the source filed them.

Columns and labels:
[1] = biological target: Glycogen synthase kinase-3 beta (Homo sapiens, UniProt P49841); assay: Inhibition of Human GSK-3 beta Activity Measured in Biochemical System Using Microfluidics - 2063-05_Inhibitor_Dose_DryPowder_Activity. [Related pubchem assays (depositor defined):AID2709]
[2] = biological target: Glycogen synthase kinase-3 alpha (Homo sapiens, UniProt P49840); assay: Inhibition of Human GSK-3 alpha Activity Measured in Biochemical System Using Microfluidics - 2063-06_Inhibitor_Dose_DryPowder_Activity. [Related pubchem assays (depositor defined):AID2709]
[3] = biological target: T1, Carboxy-terminal domain RNA polymerase II polypeptide A small phosphatase 1 (Homo sapiens, UniProt Q9GZU7); assay: inhibitors of CTDSP1, concentration-response testing, biochemical assay, absorbance-based, actives from ultra-high-throughput screening (AID 540297); format: functional
T1 sequence (Q9GZU7 whole entry): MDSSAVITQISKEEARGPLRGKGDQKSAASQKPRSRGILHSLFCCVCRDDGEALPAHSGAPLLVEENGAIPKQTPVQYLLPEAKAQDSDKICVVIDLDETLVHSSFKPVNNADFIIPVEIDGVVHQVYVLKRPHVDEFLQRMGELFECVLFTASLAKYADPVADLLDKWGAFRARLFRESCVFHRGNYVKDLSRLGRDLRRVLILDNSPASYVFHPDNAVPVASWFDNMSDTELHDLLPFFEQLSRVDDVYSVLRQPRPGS

[4] = biological target: T2, Beta-adrenergic receptor kinase 1 (Homo sapiens, UniProt P25098); assay: aptamer displacement from bead-bound GRK2 – biochemical, cherry pick 1, bead flow cytometry, dose response (AID 504500)
T2 sequence (P25098 whole entry): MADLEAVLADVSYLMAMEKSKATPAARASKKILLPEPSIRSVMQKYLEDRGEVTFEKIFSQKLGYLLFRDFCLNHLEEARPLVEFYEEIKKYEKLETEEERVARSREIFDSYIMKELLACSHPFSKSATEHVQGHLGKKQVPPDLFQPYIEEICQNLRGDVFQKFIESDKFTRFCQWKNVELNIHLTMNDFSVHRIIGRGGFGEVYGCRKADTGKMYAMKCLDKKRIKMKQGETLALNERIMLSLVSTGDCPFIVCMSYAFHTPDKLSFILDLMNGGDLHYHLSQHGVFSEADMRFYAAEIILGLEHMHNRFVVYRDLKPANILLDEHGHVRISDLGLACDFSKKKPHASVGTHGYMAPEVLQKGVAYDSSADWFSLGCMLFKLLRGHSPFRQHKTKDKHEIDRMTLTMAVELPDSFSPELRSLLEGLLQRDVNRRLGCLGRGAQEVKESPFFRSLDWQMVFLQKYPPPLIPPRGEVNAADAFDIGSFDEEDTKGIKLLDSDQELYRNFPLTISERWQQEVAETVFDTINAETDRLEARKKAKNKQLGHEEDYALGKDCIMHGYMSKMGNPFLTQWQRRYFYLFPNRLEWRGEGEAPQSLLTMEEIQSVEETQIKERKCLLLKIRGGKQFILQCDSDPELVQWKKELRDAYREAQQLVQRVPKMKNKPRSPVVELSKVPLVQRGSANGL

[5] = biological target: DNA (cytosine-5)-methyltransferase 1 (Homo sapiens, UniProt P26358); assay: DNMT1 methyltransferase inhibitors, confirmation, biochemical, fluorescent molecular beacon (AID 602386); format: functional
Sequence of DNA (cytosine-5)-methyltransferase 1 (P26358 whole entry): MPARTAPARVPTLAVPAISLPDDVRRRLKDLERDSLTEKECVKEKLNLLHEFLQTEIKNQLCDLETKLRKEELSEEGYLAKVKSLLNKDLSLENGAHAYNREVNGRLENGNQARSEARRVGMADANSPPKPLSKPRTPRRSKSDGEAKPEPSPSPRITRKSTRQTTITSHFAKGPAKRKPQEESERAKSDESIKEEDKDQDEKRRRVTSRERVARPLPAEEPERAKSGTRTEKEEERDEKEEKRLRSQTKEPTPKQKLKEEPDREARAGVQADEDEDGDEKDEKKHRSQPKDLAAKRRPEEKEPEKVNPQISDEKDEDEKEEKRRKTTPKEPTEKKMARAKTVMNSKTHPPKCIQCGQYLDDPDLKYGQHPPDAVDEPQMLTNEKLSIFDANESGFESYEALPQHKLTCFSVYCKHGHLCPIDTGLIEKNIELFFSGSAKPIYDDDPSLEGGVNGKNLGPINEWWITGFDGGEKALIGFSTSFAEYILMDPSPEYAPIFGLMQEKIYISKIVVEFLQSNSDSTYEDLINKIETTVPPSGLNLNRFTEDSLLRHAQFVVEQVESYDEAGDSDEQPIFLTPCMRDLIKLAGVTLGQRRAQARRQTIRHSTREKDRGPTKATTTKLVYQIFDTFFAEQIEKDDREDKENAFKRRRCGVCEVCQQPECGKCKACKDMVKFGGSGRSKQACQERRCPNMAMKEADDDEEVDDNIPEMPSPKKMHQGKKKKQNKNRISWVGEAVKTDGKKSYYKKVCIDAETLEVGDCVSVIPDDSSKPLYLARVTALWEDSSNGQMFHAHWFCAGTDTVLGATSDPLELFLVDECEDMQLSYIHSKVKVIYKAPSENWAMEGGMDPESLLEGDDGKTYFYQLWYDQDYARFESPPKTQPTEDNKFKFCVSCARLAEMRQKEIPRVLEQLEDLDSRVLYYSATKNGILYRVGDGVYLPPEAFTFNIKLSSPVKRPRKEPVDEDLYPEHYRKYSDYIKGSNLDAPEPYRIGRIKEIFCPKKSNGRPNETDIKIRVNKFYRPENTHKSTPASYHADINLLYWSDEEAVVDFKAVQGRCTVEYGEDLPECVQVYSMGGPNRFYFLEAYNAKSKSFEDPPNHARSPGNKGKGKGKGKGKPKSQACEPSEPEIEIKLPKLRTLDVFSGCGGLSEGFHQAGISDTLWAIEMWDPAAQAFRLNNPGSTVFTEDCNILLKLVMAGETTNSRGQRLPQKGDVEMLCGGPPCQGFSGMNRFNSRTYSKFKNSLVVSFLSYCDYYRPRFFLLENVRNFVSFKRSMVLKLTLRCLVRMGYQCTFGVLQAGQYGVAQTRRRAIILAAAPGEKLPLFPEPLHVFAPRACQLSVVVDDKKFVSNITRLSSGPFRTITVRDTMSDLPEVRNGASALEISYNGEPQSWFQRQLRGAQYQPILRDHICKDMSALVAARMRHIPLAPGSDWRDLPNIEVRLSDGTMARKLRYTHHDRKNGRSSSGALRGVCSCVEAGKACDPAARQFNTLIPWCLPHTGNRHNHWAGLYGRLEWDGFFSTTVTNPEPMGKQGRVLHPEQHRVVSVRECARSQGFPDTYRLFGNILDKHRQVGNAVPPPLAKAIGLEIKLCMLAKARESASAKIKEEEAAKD

[6] = biological target: T2, Beta-adrenergic receptor kinase 1; assay: GRK2 inhibitors displacing RNA aptamer, dose response, biochemical, flow cytometry beads, FAM-aptamer, powder set 1 (AID 588720)
[7] = system: CHO; assay: cytotoxicity in TLR9-MyD88 CHO cells, dose response, cytotoxicity control for TLR9-MyD88 binding inhibitor project, cell-based, luminescence (AID 588339); format: functional, hamster; details: Cricetulus griseus;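 further: CHO cells stably coexpressing TLR9 and MyD88 fusions from primary screen; compound exposure lasted 48 hours before viability readout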
[8] = system: INS1; assay: inhibitors of cytokine-induced nitrite release, dose response, cell-based, Griess absorbance, INS-1E, dry powder, set 2 (AID 488868); format: functional; details: Rattus norvegicus
[9] = system: INS1; assay: protection of INS-1E cells from cytokine death, dose response, ATP luminescence, dry powder (AID 488844); format: functional, cell-based; details: Rattus norvegicus
[10] = inhibitors of cytokine-induced nitrite release, dose response, cell-based, Griess absorbance, INS-1E, dry powder, set 3 (AID 488870); format: functional; details: Rattus norvegicus
[11] = system: INS1; assay: protection from cytokine-driven beta-cell apoptosis, dose response, JC-1 fluorescence, INS-1E, dry powder, set 2 (AID 488867); format: functional, cell-based; details: Rattus norvegicus
[12] = biological target: DNA topoisomerase (Yersinia pestis, UniProt A0A2S9PM60); assay: Y. pestis Topo-I inhibitors, cleavage product readout, dose response, biochemical, cherry-pick (AID 588525)
Sequence of DNA topoisomerase (A0A2S9PM60 whole entry): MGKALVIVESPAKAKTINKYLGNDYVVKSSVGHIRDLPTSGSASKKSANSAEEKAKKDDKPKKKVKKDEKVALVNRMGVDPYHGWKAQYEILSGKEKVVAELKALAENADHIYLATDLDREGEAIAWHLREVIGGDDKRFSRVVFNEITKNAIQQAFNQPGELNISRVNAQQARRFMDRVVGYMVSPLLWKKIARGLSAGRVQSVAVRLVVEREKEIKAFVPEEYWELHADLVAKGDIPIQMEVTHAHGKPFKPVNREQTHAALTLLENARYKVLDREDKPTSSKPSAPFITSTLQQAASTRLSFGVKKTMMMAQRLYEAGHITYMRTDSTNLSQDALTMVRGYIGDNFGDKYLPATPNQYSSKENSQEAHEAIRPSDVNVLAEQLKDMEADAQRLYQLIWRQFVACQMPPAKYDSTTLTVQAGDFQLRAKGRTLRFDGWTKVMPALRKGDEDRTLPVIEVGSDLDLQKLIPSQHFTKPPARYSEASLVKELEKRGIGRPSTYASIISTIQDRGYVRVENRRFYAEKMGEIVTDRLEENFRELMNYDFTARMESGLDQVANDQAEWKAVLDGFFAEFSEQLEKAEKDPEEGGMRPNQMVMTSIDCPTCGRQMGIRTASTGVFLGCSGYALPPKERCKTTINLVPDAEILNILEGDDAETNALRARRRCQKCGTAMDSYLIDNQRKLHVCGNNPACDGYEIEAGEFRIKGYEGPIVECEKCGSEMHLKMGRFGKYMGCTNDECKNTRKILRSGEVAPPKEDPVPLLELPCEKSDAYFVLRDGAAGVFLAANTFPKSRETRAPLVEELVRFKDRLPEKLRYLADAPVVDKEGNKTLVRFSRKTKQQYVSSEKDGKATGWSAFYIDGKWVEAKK

[13] = biological target: T3, Sentrin-specific protease 7 (Homo sapiens, UniProt Q9BQF6); assay: SENP7 protease inhibitors, SAR follow-up, biochemical, luminescence (AID 504497); format: functional
T3 sequence (Q9BQF6 whole entry): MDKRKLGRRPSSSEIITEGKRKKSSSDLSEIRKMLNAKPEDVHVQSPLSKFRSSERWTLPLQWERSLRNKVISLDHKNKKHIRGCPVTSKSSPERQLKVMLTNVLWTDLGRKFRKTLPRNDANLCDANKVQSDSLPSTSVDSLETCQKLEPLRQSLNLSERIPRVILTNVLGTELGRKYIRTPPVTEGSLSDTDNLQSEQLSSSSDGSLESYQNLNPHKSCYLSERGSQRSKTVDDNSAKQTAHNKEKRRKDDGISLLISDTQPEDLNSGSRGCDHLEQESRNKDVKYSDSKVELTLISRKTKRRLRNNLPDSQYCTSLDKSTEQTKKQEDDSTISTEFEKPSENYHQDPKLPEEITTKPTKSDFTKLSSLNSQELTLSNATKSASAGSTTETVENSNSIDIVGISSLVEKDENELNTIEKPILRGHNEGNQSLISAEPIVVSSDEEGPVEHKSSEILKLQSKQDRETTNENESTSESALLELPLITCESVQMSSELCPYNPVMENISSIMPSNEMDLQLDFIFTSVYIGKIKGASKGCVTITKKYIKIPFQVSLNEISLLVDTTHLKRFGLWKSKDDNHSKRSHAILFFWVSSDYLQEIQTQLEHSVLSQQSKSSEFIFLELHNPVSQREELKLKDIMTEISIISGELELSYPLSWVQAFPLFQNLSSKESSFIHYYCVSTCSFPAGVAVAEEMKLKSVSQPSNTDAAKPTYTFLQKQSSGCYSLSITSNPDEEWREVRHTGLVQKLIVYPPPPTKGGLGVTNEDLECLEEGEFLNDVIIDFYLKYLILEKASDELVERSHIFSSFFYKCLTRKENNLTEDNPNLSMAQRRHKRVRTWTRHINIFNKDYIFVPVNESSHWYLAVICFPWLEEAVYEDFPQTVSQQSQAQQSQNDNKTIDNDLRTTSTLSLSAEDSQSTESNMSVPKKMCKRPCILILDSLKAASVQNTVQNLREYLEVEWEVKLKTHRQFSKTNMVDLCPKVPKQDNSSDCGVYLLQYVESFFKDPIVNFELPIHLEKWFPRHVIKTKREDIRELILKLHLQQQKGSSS

[14] = biological target: T4, Sentrin-specific protease 8 (Homo sapiens, UniProt Q96LD8); assay: SENP8 protease inhibitors, SAR follow-up, biochemical, luminescence (AID 504501); format: functional
T4 sequence (Q96LD8 whole entry): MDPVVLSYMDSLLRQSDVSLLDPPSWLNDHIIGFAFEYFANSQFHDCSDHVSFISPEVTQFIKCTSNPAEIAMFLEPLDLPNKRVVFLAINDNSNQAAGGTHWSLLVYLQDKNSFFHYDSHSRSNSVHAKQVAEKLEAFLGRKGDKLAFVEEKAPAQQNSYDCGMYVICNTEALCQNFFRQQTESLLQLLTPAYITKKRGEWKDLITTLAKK

[15] = biological target: T5, Sentrin-specific protease 6 (Homo sapiens, UniProt Q9GZR1); assay: SAR Analysis of small molecule inhibitors of Sentrin-specific protease 6 (SENP6) using a Luminescent assay. [Related pubchem assays (depositor defined):AID2582, AID2599]; format: functional
T5 sequence (Q9GZR1 whole entry): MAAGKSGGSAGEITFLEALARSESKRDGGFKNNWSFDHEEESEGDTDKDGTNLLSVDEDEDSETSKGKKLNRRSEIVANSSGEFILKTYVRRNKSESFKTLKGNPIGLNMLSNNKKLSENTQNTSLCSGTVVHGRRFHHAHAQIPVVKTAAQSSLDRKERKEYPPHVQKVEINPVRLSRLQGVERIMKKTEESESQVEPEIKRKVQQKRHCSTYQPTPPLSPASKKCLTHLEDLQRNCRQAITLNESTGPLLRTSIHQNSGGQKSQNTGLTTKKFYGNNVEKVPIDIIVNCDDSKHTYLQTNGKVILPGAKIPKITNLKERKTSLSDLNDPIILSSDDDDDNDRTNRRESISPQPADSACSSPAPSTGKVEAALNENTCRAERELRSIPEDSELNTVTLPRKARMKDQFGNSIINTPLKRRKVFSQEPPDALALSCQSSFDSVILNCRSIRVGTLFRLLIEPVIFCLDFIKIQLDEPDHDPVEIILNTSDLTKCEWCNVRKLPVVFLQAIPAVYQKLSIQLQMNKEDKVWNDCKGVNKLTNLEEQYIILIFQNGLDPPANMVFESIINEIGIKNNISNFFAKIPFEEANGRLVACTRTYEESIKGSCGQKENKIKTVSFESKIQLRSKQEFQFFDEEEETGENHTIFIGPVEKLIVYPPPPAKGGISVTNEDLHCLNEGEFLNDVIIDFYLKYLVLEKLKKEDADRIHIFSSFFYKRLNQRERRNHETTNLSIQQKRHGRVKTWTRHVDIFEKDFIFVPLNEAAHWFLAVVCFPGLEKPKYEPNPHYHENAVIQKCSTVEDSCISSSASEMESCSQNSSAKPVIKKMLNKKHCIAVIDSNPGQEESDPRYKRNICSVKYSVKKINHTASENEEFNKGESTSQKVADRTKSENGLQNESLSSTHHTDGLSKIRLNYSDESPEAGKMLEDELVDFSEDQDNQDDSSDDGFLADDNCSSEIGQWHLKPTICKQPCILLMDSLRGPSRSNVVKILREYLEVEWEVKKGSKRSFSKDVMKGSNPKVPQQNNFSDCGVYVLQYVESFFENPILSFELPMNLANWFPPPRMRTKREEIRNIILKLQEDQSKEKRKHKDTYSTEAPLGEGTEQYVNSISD

[16] = biological target: T6, Caspase-3 (Homo sapiens, UniProt P42574); assay: SAR Analysis of small molecule inhibitors of Sentrin-specific proteases (SENPs) using a Caspase-3 Selectivity assay. [Related pubchem assays (depositor defined):AID2540, AID2599, AID434973, AID489001]; format: functional
T6 sequence (P42574 whole entry): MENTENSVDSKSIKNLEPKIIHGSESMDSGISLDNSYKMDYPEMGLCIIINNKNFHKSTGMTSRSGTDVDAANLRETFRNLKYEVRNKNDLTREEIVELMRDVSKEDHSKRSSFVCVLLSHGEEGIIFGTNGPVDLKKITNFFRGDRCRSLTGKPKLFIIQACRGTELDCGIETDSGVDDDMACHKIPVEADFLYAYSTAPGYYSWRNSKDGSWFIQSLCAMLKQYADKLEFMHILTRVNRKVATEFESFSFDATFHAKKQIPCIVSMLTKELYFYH

[17] = biological target: T4, Sentrin-specific protease 8; assay: SENP8 protease inhibitors, SAR follow-up, biochemical, luminescence, set 2 (AID 588601); format: functional
[18] = biological target: T3, Sentrin-specific protease 7; assay: SENP7 protease inhibitors, SAR follow-up, biochemical, luminescence, set 2 (AID 588600); format: functional
[19] = biological target: DNA dC->dU-editing enzyme APOBEC-3G (Homo sapiens, UniProt Q9HC16); assay: APOBEC3G deaminase inhibitors, SAR follow-up, biochemical, fluorescence, single-stranded DNA substrate (AID 602136); format: functional; details: read-out: IC50_Mean
Sequence of DNA dC->dU-editing enzyme APOBEC-3G (Q9HC16 whole entry): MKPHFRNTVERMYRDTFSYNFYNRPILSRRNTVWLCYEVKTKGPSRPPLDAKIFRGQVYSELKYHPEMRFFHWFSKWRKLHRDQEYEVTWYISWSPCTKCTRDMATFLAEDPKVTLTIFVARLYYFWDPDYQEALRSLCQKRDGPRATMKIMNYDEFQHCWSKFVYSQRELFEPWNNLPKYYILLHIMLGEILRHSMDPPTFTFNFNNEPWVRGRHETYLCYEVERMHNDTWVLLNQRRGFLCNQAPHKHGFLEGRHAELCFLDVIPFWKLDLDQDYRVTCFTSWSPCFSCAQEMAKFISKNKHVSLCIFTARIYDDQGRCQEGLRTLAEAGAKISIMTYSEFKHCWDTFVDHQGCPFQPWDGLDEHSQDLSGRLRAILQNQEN

[20] = biological target: DNA dC->dU-editing enzyme APOBEC-3A (Homo sapiens, UniProt P31941); assay: SAR analysis of small molecule inhibitors of APOBEC3A DNA Deaminase via a fluorescence-based single-stranded DNA deaminase assay.; format: functional; details: read-out: IC50_Mean
Sequence of DNA dC->dU-editing enzyme APOBEC-3A (P31941 whole entry): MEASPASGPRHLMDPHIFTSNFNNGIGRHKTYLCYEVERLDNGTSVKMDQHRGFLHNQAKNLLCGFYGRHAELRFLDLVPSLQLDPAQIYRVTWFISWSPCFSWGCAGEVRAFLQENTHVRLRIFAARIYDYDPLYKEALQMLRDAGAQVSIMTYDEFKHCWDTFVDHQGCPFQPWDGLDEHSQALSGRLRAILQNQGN

[21] = THP-1 cell cytotoxicity, dose response, cytotoxicity control, set 3 (AID 504852); format: functional; details: Mycobacterium tuberculosis
[22] = Vero cell cytotoxicity, dose response, cytotoxicity control for M. tuberculosis growth inhibitor project, Vero cells, purified and synthesized compounds, set 4 (AID 504854); format: functional; details: Mycobacterium tuberculosis
[23] = THP-1 cell cytotoxicity, cytotoxicity control, set 4 (AID 504911); format: functional; details: Mycobacterium tuberculosis
[24] = biological target: Voltage-gated inwardly rectifying potassium channel KCNH2 (Homo sapiens, UniProt Q12809); details: Potency;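 further: confirmatory quantitative high-throughput screen measuring inhibition of hERG channel activity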
Sequence of Voltage-gated inwardly rectifying potassium channel KCNH2 (Q12809 whole entry): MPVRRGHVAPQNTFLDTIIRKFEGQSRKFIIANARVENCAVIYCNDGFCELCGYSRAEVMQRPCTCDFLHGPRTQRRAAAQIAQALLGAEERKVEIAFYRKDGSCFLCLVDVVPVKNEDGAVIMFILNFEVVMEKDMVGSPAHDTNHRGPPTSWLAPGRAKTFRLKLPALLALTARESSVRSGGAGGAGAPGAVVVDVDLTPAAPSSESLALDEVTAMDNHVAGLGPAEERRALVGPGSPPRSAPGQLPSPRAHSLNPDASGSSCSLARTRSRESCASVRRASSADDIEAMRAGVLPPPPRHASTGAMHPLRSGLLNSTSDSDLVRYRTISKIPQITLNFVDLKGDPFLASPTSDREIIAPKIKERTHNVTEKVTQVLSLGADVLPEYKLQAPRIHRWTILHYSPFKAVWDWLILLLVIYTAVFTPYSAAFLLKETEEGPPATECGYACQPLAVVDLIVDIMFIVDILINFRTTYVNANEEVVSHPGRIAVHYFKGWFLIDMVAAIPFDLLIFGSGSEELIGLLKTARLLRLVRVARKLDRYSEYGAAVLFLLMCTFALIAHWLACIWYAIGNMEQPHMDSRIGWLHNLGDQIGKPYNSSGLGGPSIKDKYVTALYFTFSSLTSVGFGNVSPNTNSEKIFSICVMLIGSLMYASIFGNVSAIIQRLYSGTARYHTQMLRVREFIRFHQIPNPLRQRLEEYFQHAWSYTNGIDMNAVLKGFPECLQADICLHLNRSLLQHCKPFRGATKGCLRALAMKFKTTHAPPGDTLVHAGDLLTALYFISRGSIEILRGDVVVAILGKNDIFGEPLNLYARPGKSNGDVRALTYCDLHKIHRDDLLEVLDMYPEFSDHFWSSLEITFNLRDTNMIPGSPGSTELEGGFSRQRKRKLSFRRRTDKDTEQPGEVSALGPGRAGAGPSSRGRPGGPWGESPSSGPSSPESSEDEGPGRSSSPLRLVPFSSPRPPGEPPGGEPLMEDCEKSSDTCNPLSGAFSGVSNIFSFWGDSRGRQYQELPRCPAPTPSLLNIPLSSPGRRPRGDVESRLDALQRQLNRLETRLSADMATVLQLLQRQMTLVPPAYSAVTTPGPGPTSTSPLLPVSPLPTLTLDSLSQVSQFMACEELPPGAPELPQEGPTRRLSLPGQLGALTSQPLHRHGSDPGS

In the case of CCCn1nc(NC(=O)C(C)C)c2cc3cc(OC)ccc3nc21, the AC50 [1] was 3.25 µM (active) and the AC50 [2] was 38.5 µM (active).

In the case of CCN(CC)c1ccc(NC(=O)CCS(=O)(=O)c2ccc(Br)cc2)c(C)c1, the IC50 [3] was 3.04 µM (active), the EC50 [4] was 5.01 µM (active) and the IC50 [5] was 8.64 µM (active). For the same compound, the EC50 [6] was 0.426 µM (active).

For Nc1ccc2nc(-c3ccccc3)cnc2c1, the IC50 [7] was > 49.7 µM (inactive).

In the case of Cc1ccc(S(=O)(=O)N(C)C[C@@H]2Oc3c(NC(=O)Nc4cccc5ccccc45)cccc3C(=O)N([C@@H](C)CO)C[C@H]2C)cc1, the AC50 [8] was 69.6 µM (active), the AC50 [9] was 31.7 µM (active) and the AC50 [10] was 32.7 µM (active). For the same compound, the AC50 [11] was 48.3 µM (active).

For COc1cc2nc3n(c(=O)c2cc1OC)-c1cc2ccccc2cc1C(=O)NC3Cc1ccccc1 (centres undefined), the AC50 [12] was 11.8 µM (active).

With Cc1cccc(-c2noc(/C=C/c3ccccc3)n2)c1 the IC50 [13] was 4.9 µM (active), the IC50 [14] was > 99 µM (inactive) and the IC50 [15] was 17 µM (active). The IC50 [16] was 11 µM (active), the IC50 [17] was 3.48 µM (active) and the IC50 [18] was 4.14 µM (active).

In the case of CCCCN1CCc2cc(/C=C3\C(=O)NC(=S)N(C4CCCCC4)C3=O)ccc21, the IC50 [19] was > 99 µM (inactive) and the IC50 [20] was > 99 µM (inactive).

For O=C(CSc1nc2c(c(=O)[nH]1)CCCC2)NC1CCCCC1, the CC50 [21] was > 100 µM (active), the CC50 [22] was > 100 µM (active) and the CC50 [23] was > 100 µM (active).

In the case of Cn1cc(C(=O)OCC2CCN(CCNS(C)(=O)=O)CC2)c2ccccc21, the AC50 [24] was 35.5 µM (inconclusive).
